# According to PubChem BioAssay (NCI):
#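 Cells were grown in 96-well plates and exposed to each compound for 48 hours at five concentrations; endpoints were interpolated linearly between bracketing concentrations, or set to the highest concentration if not reached. Here, GI50 denotes the concentration required for 50% inhibition of growth. Definition used: TGI = concentration required for complete inhibition of growth.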
# Key:
# Test in all cases: NCI tumour cell line growth inhibition, 48 h
# 786-0 renal = system: 786-0 renal
# A549 NSCLC = system: A549 NSCLC
# ACHN renal = system: ACHN renal
# BT-549 breast = system: BT-549 breast
# CAKI-1 renal = system: CAKI-1 renal
# COLO 205 colon = system: COLO 205 colon
# DU-145 prostate = system: DU-145 prostate
# EKVX NSCLC = system: EKVX NSCLC
# HCC-2998 colon = system: HCC-2998 colon
# HCT-116 colon = system: HCT-116 colon
# HCT-15 colon = system: HCT-15 colon
# HL-60(TB) leukemia = system: HL-60(TB) leukemia
# HOP-62 NSCLC = system: HOP-62 NSCLC
# HOP-92 NSCLC = system: HOP-92 NSCLC
# HS 578T breast = system: HS 578T breast
# IGROV1 ovarian = system: IGROV1 ovarian
# K-562 leukemia = system: K-562 leukemia
# KM12 colon = system: KM12 colon
# M14 melanoma = system: M14 melanoma
# MCF7 breast = system: MCF7 breast
# MDA-MB-231 breast = system: MDA-MB-231 breast
# MDA-MB-435 = system: MDA-MB-435
# NCI-H23 lung = system: NCI-H23 lung
# NCI-H460 lung = system: NCI-H460 lung
# NCI-H522 lung = system: NCI-H522 lung
# NCI/ADR-RES ovarian = system: NCI/ADR-RES ovarian
# OVCAR-3 ovarian = system: OVCAR-3 ovarian
# OVCAR-4 ovarian = system: OVCAR-4 ovarian
# OVCAR-5 ovarian = system: OVCAR-5 ovarian
# OVCAR-8 ovarian = system: OVCAR-8 ovarian
# PC-3 prostate = system: PC-3 prostate
# RPMI-8226 leukemia = system: RPMI-8226 leukemia
# RXF 393 renal = system: RXF 393 renal
# SF-268 CNS = system: SF-268 CNS
# SF-295 CNS = system: SF-295 CNS
# SF-539 CNS = system: SF-539 CNS
# SK-MEL-2 melanoma = system: SK-MEL-2 melanoma
# SK-MEL-28 melanoma = system: SK-MEL-28 melanoma
# SK-MEL-5 melanoma = system: SK-MEL-5 melanoma
# SK-OV-3 ovarian = system: SK-OV-3 ovarian
# SN12C renal = system: SN12C renal
# SNB-19 CNS = system: SNB-19 CNS
# SNB-75 CNS = system: SNB-75 CNS
# SR leukemia = system: SR leukemia
# SW-620 colon = system: SW-620 colon
# T-47D breast = system: T-47D breast
# TK-10 renal = system: TK-10 renal
# U251 CNS = system: U251 CNS
# UACC-257 melanoma = system: UACC-257 melanoma
# UACC-62 melanoma = system: UACC-62 melanoma
# UO-31 renal = system: UO-31 renal
smiles,measurement,setting,value
C=C(CN1CCN(c2ccccn2)CC1)c1ccc(C(=O)Nc2ccccc2N)cc1,GI50,786-0 renal,1.2 µM
same,TGI,786-0 renal,8.15 µM
same,GI50,A549 NSCLC,2.4 µM
same,TGI,A549 NSCLC,37.3 µM
same,GI50,ACHN renal,1.5 µM
same,TGI,ACHN renal,> 50 µM
same,GI50,BT-549 breast,3.95 µM
same,TGI,BT-549 breast,37.4 µM
same,GI50,CAKI-1 renal,1.19 µM
same,TGI,CAKI-1 renal,5.03 µM
same,GI50,COLO 205 colon,1.71 µM
same,TGI,COLO 205 colon,5.74 µM
same,GI50,DU-145 prostate,2.52 µM
same,TGI,DU-145 prostate,18.5 µM
same,GI50,EKVX NSCLC,5.33 µM
same,TGI,EKVX NSCLC,> 50 µM
same,GI50,HCC-2998 colon,0.664 µM
same,TGI,HCC-2998 colon,1.94 µM
same,GI50,HCT-116 colon,2.5 µM
same,TGI,HCT-116 colon,32.1 µM
same,GI50,HCT-15 colon,1.91 µM
same,TGI,HCT-15 colon,> 50 µM
same,GI50,HL-60(TB) leukemia,2.2 µM
same,TGI,HL-60(TB) leukemia,> 50 µM
same,GI50,HOP-62 NSCLC,1.32 µM
same,TGI,HOP-62 NSCLC,> 50 µM
same,GI50,HOP-92 NSCLC,5.7 µM
same,TGI,HOP-92 NSCLC,23.1 µM
same,GI50,HS 578T breast,1.11 µM
same,TGI,HS 578T breast,6.28 µM
same,GI50,IGROV1 ovarian,1.57 µM
same,TGI,IGROV1 ovarian,37.8 µM
same,GI50,K-562 leukemia,0.956 µM
same,TGI,K-562 leukemia,> 50 µM
same,GI50,KM12 colon,0.936 µM
same,TGI,KM12 colon,3.12 µM
same,GI50,M14 melanoma,8.48 µM
same,TGI,M14 melanoma,> 50 µM
same,GI50,MCF7 breast,3.15 µM
same,TGI,MCF7 breast,> 50 µM
same,GI50,MDA-MB-231 breast,2.17 µM
same,TGI,MDA-MB-231 breast,> 50 µM
same,GI50,MDA-MB-435,0.522 µM
same,TGI,MDA-MB-435,1.4 µM
same,GI50,NCI-H23 lung,0.939 µM
same,TGI,NCI-H23 lung,2.44 µM
same,GI50,NCI-H460 lung,2.81 µM
same,TGI,NCI-H460 lung,> 50 µM
same,GI50,NCI-H522 lung,1.56 µM
same,TGI,NCI-H522 lung,9.36 µM
same,GI50,NCI/ADR-RES ovarian,1.31 µM
same,TGI,NCI/ADR-RES ovarian,5.05 µM
same,GI50,OVCAR-3 ovarian,1.25 µM
same,TGI,OVCAR-3 ovarian,4.39 µM
same,GI50,OVCAR-4 ovarian,6.35 µM
same,TGI,OVCAR-4 ovarian,> 50 µM
same,GI50,OVCAR-5 ovarian,6.1 µM
same,TGI,OVCAR-5 ovarian,26.4 µM
same,GI50,OVCAR-8 ovarian,1.5 µM
same,TGI,OVCAR-8 ovarian,> 50 µM
same,GI50,PC-3 prostate,3.78 µM
same,TGI,PC-3 prostate,> 50 µM
same,GI50,RPMI-8226 leukemia,1.6 µM
same,TGI,RPMI-8226 leukemia,> 50 µM
same,GI50,RXF 393 renal,1.55 µM
same,TGI,RXF 393 renal,13 µM
same,GI50,SF-268 CNS,1.66 µM
same,TGI,SF-268 CNS,9.22 µM
same,GI50,SF-295 CNS,1.39 µM
same,TGI,SF-295 CNS,6.52 µM
same,GI50,SF-539 CNS,1.5 µM
same,TGI,SF-539 CNS,8.87 µM
same,GI50,SK-MEL-2 melanoma,1.87 µM
same,TGI,SK-MEL-2 melanoma,> 50 µM
same,GI50,SK-MEL-28 melanoma,2.52 µM
same,TGI,SK-MEL-28 melanoma,> 50 µM
same,GI50,SK-MEL-5 melanoma,0.726 µM
same,TGI,SK-MEL-5 melanoma,1.75 µM
same,GI50,SK-OV-3 ovarian,1.3 µM
same,TGI,SK-OV-3 ovarian,4.44 µM
same,GI50,SN12C renal,2.35 µM
same,TGI,SN12C renal,> 50 µM
same,GI50,SNB-19 CNS,4.87 µM
same,TGI,SNB-19 CNS,29.7 µM
same,GI50,SNB-75 CNS,1.48 µM
same,TGI,SNB-75 CNS,4.68 µM
same,GI50,SR leukemia,5.33 µM
same,TGI,SR leukemia,> 50 µM
same,GI50,SW-620 colon,1.71 µM
same,TGI,SW-620 colon,> 50 µM
same,GI50,T-47D breast,1.23 µM
same,TGI,T-47D breast,20.9 µM
same,GI50,TK-10 renal,1.85 µM
same,TGI,TK-10 renal,8.23 µM
same,GI50,U251 CNS,1.48 µM
same,TGI,U251 CNS,> 50 µM
same,GI50,UACC-257 melanoma,2.32 µM
same,TGI,UACC-257 melanoma,> 50 µM
same,GI50,UACC-62 melanoma,1.41 µM
same,TGI,UACC-62 melanoma,9.99 µM
same,GI50,UO-31 renal,1.8 µM
same,TGI,UO-31 renal,7.57 µM
